# Experimental data as given in patent publication US4371540A, “Nitroimidazoles of low toxicity and high activity as radiosensitizers of hypoxic tumor cells” (priority 1980, dated 1983).
# Assays:
# [1] = 1-electron reduction potential / electron affinity; assay type: physicochemical; details: for E7^1 (1-electron reduction potential): Table 1; for electron affinity relative to MIS: in words
# physchem [2] = details: octanol:water
# in vivo [3] = details: mouse
# [4] = peak tumor concentration in dogs bearing spontaneous tumors; details: for Mean Peak Tumor Concentration: dogs with spontaneous tumors, i.v. bolus 0.5 micromoles/g
# [5] = plasma pharmacokinetics and neural tissue exposure (AUC) in dogs; details: for AUC / clearance: dog; for AUC: 500 umol/kg; for AUC PNS: peripheral nerve
# Experimental: (§1) The imidazoles were formulated in a 0.9% sodium chloride solution at a concentration of 5%. Doses of 0.25-1.0 mmole/kg of each compound were administered to normal adult, male cross-bred dogs and subsequent plasma concentrations were monitored by high performance liquid chromatography. Samples of brain, cerebrospinal fluid (CSF), and peripheral nerve (PNS) were removed for assay from similarly dosed dogs over the same test period.
# [6] = accelerated rotarod neurotoxicity test; details: for Dose to Give Equivalent Neurotoxicity Relative to MIS: daily dosing, MIS = 1; for factor by which less neurotoxic than MIS: at least a factor of
# Text: Performance and toxicity determinations were made after four-and-one-half weeks of daily dosing.
# hypoxic tumor cells = details: cited from earlier work
# BALB/c mice = details: for acute toxicity relative to MIS: from LD50 data of Table 1
# tumors in vivo = tumors in vivo and cells; Brown and Lee, 1979; cited from earlier work
# [7] = method of Fujita et al
# EMT6 tumor cells = test: radiosensitization of EMT6 tumor cells; details: in words
# physchem [8] = details: 0.9% saline
# [9] = for tumor/brain ratio relative to MIS: i.p., EMT6 tumor bearing mice, FIGS. 1 and 2; for crossing of the blood/brain barrier relative to MIS: in words
# Experimental: Each test compound was formulated immediately before administration to the animals in Hanks' balanced salt solution at a concentration such that the volume injected intraperitoneally was 0.05 ml per g body weight.
# The mice were injected intraperitoneally and at various times were bled by cardiac puncture under anesthesia. Plasma was obtained by centrifugation and stored frozen at -20° C. The tumor and whole brain were taken immediately after cardiac puncture and stored frozen at -20° C.
# The brain/plasma ratio is the mean value from all the mice for each compound.
# [10] = plasma concentration after oral administration of acetate esters versus parent drugs; assay type: in vivo; details: mice, 4 or 5 mmole/kg
# in vivo [11] = details: dog
# Experimental: as §1
# [12] = dogs, standardized for 0.5 mmole/kg
compound,measurement,setting,value
O=[N+]([O-])c1nccn1CCN1CCOCC1,E7^1 (1-electron reduction potential),[1],-390 mV
same,logP,physchem [2],-0.0862
same,LD50,in vivo [3],~900 mg/kg
"COCC(O)Cn1ccnc1[N+](=O)[O-] (stereo not shown) [MIS, misonidazole, reference compound]",Mean Peak Tumor Concentration,[4],0.56 μ moles.g^-1
same,AUC,[5]; cerebrospinal fluid,2660 µM·h
same,clearance,[5]; plasma,1.5 mL/min/kg
same,AUC,[5]; plasma,3680 µM·h
same,AUC PNS,[5]; [12],2.25 μ moles.hr.ml^ -1 or g^-1
same,AUC Brain,[5]; [12],2.32 μ moles.hr.ml^ -1 or g^-1
same,E7^1 (1-electron reduction potential),[1],-389 mV
same,Dose to Give Equivalent Neurotoxicity Relative to MIS,[6]; four-and-one-half weeks,1
same,radiosensitization at recommended dose,hypoxic tumor cells; conventional multifraction radiotherapy regime,suboptimal radiosensitization
same,radiosensitizing activity relative to metronidazole,hypoxic tumor cells; in words,greater radiosensitizing activity of the two compounds
same,clinical limitation by toxicity,"hypoxic tumor cells; man, in words",limited by its neurotoxicity
same,recommended maximum total dose (neurotoxicity),"hypoxic tumor cells; man, per body surface, Dische et al",≤ 12 g/m^2
same,Acute LD50,BALB/c mice; BALB/c mice (20-25 g),1.8(1.3-2.6) mg/g
O=C(Cn1ccnc1[N+](=O)[O-])NCC(O)CO (stereo not shown) [Compound 10],E7^1 (1-electron reduction potential),[1],-392 mV
same,radiosensitizing activity relative to MIS,tumors in vivo,significantly inferior to MIS
same,logP,physchem [2],-1.85
same,LD50,in vivo [3],> 6100 mg/kg
O=[N+]([O-])c1nccn1CC(O)CCl (stereo not shown) [Compound 1],E7^1 (1-electron reduction potential),[1],-384 mV
same,logP,physchem [2],0.176
same,LD50,in vivo [3],~180 mg/kg
"O=C(Cn1ccnc1[N+](=O)[O-])N(CCO)CCO [SR-2555, N,N-di-(2-hydroxyethyl)-2-(2-nitro-1-imidazolyl)acetamide]",Mean Peak Tumor Concentration,[4],1.30 μ moles.g^-1
same,peak tumor concentration relative to MIS,"[4]; dogs, i.v. bolus, in words",considerably higher than MIS
same,time of peak tumor concentration relative to MIS,"[4]; dogs, i.v. bolus, in words",considerably earlier than MIS
same,AUC,"[5]; cerebrospinal fluid, AUC CSF, dogs, standardized for 0.5 mmole/kg",170 µM·h
same,clearance,[5]; plasma,4.33 mL/min/kg
same,AUC,"[5]; plasma, AUC Plasma, dogs, standardized for 0.5 mmole/kg",1620 µM·h
same,clearance rate relative to MIS,"[5]; dogs, in words",considerably more rapid than for MIS
same,"penetration into brain, CSF and peripheral nerves relative to MIS","[5]; dogs, in words",considerably lower
same,total exposure of neural tissues (AUC) relative to MIS,"[5]; dogs, in words",significantly smaller than for MIS
same,AUC PNS,[5]; [12],0.75 μ moles.hr.ml^ -1 or g^-1
same,AUC Brain,[5]; [12],0.51 μ moles.hr.ml^ -1 or g^-1
same,octanol:water partition coefficient,[7],0.026
same,E7^1 (1-electron reduction potential),[1],-398 mV
same,electron affinity relative to MIS,[1],similar
same,radiosensitizing efficiency relative to MIS,EMT6 tumor cells,comparable radiosensitizing activity
same,factor by which less neurotoxic than MIS,[6],3-5
same,Performance Relative to Controls,"[6]; daily dose 3.0 mg/g, four-and-one-half weeks",1.07 ± 0.16
same,Dose to Give Equivalent Neurotoxicity Relative to MIS,[6]; four-and-one-half weeks,> 5
same,solubility,physchem [8],> 300 mg/mL
same,acute toxicity relative to MIS,BALB/c mice,about three to five times less
same,logP,physchem [2],-1.59
same,tumor/brain ratio relative to MIS,[9],an order of magnitude greater than MIS
same,crossing of the blood/brain barrier relative to MIS,[9],to a lower degree than does MIS
same,LD50,in vivo [3],> 7700 mg/kg
COC(=O)Cn1ccnc1[N+](=O)[O-] [methyl 2-nitroimidazole-1-acetate],solubility,physchem [8],13.6 mg/mL
CC(=O)OCCNC(=O)Cn1ccnc1[N+](=O)[O-] [acetate ester of SR-2508],peak plasma concentration of SR-2508 or SR-2555 after oral ester relative to oral parent drug,[10],significantly higher
"O=C(Cn1ccnc1[N+](=O)[O-])NCCO [SR-2508, N-(2-hydroxyethyl)-2-(2-nitro-1-imidazolyl)acetamide]",octanol:water partition coefficient,[7],0.046
same,E7^1 (1-electron reduction potential),[1],-388 mV
same,electron affinity relative to MIS,[1],similar
same,radiosensitizing efficiency relative to MIS,EMT6 tumor cells,comparable radiosensitizing activity
same,factor by which less neurotoxic than MIS,[6],3-5
same,Dose to Give Equivalent Neurotoxicity Relative to MIS,[6]; four-and-one-half weeks,> 3.3
same,solubility,physchem [8],~200 mg/mL
same,clearance,in vivo [11],3.5 mL/min/kg
same,acute toxicity relative to MIS,BALB/c mice,about three to five times less
same,logP,physchem [2],-1.34
same,tumor/brain ratio relative to MIS,[9],an order of magnitude greater than MIS
same,crossing of the blood/brain barrier relative to MIS,[9],to a lower degree than does MIS
same,LD50,in vivo [3],4900 mg/kg
O=[N+]([O-])c1nccn1CC(O)CF (stereo not shown) [Compound 4],E7^1 (1-electron reduction potential),[1],-383 mV
same,logP,physchem [2],-0.357
same,LD50,in vivo [3],~900 mg/kg
O=[N+]([O-])c1nccn1CC(O)CO (stereo not shown) [Compound 6],E7^1 (1-electron reduction potential),[1],-389 mV
same,logP,physchem [2],-0.886
same,LD50,in vivo [3],3100 mg/kg
C[S+]([O-])CCn1ccnc1[N+](=O)[O-] (stereo not shown) [Compound 7],logP,physchem [2],-1.22
same,LD50,in vivo [3],~2000 mg/kg
CCOCC(O)Cn1ccnc1[N+](=O)[O-] (stereo not shown) [Compound 2],E7^1 (1-electron reduction potential),[1],-391 mV
same,logP,physchem [2],0.104
same,LD50,in vivo [3],> 1100 mg/kg
